Test results: BindingDB's records for doi:10.1021/cb600311v (University of California San Francisco, 2006)

Columns and labels:
[1] = molecular target: T1, Thyroid hormone receptor alpha (Homo sapiens, UniProt P10827); assay: Transactivation Assay in U2OS cells
T1 sequence (P10827 whole entry): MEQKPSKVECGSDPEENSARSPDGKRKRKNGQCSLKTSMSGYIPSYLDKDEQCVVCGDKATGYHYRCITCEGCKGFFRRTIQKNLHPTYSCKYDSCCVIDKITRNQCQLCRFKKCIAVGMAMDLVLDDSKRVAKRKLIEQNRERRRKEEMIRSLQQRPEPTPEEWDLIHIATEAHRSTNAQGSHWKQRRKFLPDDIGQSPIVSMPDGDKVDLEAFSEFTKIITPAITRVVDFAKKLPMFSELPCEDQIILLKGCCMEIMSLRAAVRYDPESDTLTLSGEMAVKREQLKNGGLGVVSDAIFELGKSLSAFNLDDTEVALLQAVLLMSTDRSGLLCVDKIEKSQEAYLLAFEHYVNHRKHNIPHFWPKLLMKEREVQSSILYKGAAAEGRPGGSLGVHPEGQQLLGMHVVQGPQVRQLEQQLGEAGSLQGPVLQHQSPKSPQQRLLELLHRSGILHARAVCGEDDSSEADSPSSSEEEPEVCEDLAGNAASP
Description: TRE-driven dual-luciferase reporter assay in human bone osteosarcoma epithelial (U2OS) cell line.

[2] = molecular target: T2, Thyroid hormone receptor beta (Homo sapiens, UniProt P10828); assay: Competition Binding Assay
T2 sequence (P10828 whole entry): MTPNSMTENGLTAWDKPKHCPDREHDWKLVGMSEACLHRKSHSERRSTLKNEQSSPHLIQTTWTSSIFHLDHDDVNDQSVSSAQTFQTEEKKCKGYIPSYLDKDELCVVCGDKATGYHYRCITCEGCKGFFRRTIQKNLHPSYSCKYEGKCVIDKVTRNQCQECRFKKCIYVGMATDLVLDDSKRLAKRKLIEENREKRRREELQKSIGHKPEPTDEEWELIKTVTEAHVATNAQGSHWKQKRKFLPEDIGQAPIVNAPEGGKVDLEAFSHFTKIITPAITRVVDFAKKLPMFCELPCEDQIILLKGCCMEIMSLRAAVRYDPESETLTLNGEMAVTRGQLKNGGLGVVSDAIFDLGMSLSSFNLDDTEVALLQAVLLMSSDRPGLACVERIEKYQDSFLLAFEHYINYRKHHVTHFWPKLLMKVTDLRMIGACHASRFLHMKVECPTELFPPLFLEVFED
Description: (§1) Thyroid hormone competitive binding assay using TNT T7 quick-coupled transcription translation system from promega.

[3] = molecular target: T1, Thyroid hormone receptor alpha; assay: Competition Binding Assay
Description: as §1

Row | SMILES | EC50 [1] [nM] | Kd [2] [nM] | Kd [3] [nM]
1 | CC(C)c1cc(Oc2c(I)cc(Cc3[nH]c(=O)[nH]c3O)cc2I)ccc1O | 34 | 1.7 | 1.2
2 | Cc1cc(Cc2[nH]c(=O)[nH]c2O)cc(C)c1Oc1ccc(O)c(C(C)C)c1 [CO22] | 3870 | 280 | 286
